Assay: Inhibition against delta receptor from displacement studies using 1.5 nM [3H]DPDPE in rhesus monkey cortex membrane

SMILES	Ki [nM]
CCCCCCN1CC[C@]2(C)c3cc(O)ccc3CC1[C@@H]2C [(6S,11R)-3-Hexyl-6,11-dimethyl-1,2,3,4,5,6-hexahydro-2,6-methano-benzo[d]azocin-8-ol]	67
C[C@H]1C2Cc3ccc(O)cc3[C@@]1(C)CCN2 [(6S,11R)-6,11-Dimethyl-1,2,3,4,5,6-hexahydro-2,6-methano-benzo[d]azocin-8-ol]	449
CCCCCCCCCN1CC[C@]2(C)c3cc(O)ccc3CC1[C@@H]2C [(6S,11R)-6,11-Dimethyl-3-nonyl-1,2,3,4,5,6-hexahydro-2,6-methano-benzo[d]azocin-8-ol]	464
CCCCCCCCN1CC[C@]2(C)c3cc(O)ccc3CC1[C@@H]2C [(6S,11R)-6,11-Dimethyl-3-octyl-1,2,3,4,5,6-hexahydro-2,6-methano-benzo[d]azocin-8-ol]	114
CCCCCN1CC[C@]2(C)c3cc(O)ccc3CC1[C@@H]2C [(6S,11R)-6,11-Dimethyl-3-pentyl-1,2,3,4,5,6-hexahydro-2,6-methano-benzo[d]azocin-8-ol]	98
CCCN1CC[C@]2(C)c3cc(O)ccc3CC1[C@@H]2C [(6S,11R)-6,11-Dimethyl-3-propyl-1,2,3,4,5,6-hexahydro-2,6-methano-benzo[d]azocin-8-ol]	37
CCCCCCCN1CC[C@]2(C)c3cc(O)ccc3CC1[C@H]2C [(6S,11S)-3-Heptyl-6,11-dimethyl-1,2,3,4,5,6-hexahydro-2,6-methano-benzo[d]azocin-8-ol]	7000
CCCCCCCCCN1CC[C@]2(C)c3cc(O)ccc3CC1[C@H]2C [(6S,11S)-6,11-Dimethyl-3-nonyl-1,2,3,4,5,6-hexahydro-2,6-methano-benzo[d]azocin-8-ol]	2930
CCCCCCCCN1CC[C@]2(C)c3cc(O)ccc3CC1[C@H]2C [(6S,11S)-6,11-Dimethyl-3-octyl-1,2,3,4,5,6-hexahydro-2,6-methano-benzo[d]azocin-8-ol]	1590

Assay: Inhibition against kappa receptor from displacement studies using 1.5 nM [3H]U-69593 in rhesus monkey cortex membrane

SMILES	Ki [nM]
CCCCCCN1CC[C@@]2(C)c3cc(O)ccc3CC1[C@H]2C [(6R,11S)-3-Hexyl-6,11-dimethyl-1,2,3,4,5,6-hexahydro-2,6-methano-benzo[d]azocin-8-ol]	2260
CCCCCCN1CC[C@]2(C)c3cc(O)ccc3CC1[C@@H]2C [(6S,11R)-3-Hexyl-6,11-dimethyl-1,2,3,4,5,6-hexahydro-2,6-methano-benzo[d]azocin-8-ol]	43
C[C@H]1C2Cc3ccc(O)cc3[C@@]1(C)CCN2 [(6S,11R)-6,11-Dimethyl-1,2,3,4,5,6-hexahydro-2,6-methano-benzo[d]azocin-8-ol]	113
CCCCCCCCCN1CC[C@]2(C)c3cc(O)ccc3CC1[C@@H]2C [(6S,11R)-6,11-Dimethyl-3-nonyl-1,2,3,4,5,6-hexahydro-2,6-methano-benzo[d]azocin-8-ol]	709
CCCCCCCCN1CC[C@]2(C)c3cc(O)ccc3CC1[C@@H]2C [(6S,11R)-6,11-Dimethyl-3-octyl-1,2,3,4,5,6-hexahydro-2,6-methano-benzo[d]azocin-8-ol]	77
CCCCCN1CC[C@]2(C)c3cc(O)ccc3CC1[C@@H]2C [(6S,11R)-6,11-Dimethyl-3-pentyl-1,2,3,4,5,6-hexahydro-2,6-methano-benzo[d]azocin-8-ol]	23
CCCN1CC[C@]2(C)c3cc(O)ccc3CC1[C@@H]2C [(6S,11R)-6,11-Dimethyl-3-propyl-1,2,3,4,5,6-hexahydro-2,6-methano-benzo[d]azocin-8-ol]	2
CCCCCCCCCCN1CC[C@]2(C)c3cc(O)ccc3CC1[C@H]2C [(6S,11S)-3-Decyl-6,11-dimethyl-1,2,3,4,5,6-hexahydro-2,6-methano-benzo[d]azocin-8-ol]	2260
CCCCCCCN1CC[C@]2(C)c3cc(O)ccc3CC1[C@H]2C [(6S,11S)-3-Heptyl-6,11-dimethyl-1,2,3,4,5,6-hexahydro-2,6-methano-benzo[d]azocin-8-ol]	723
CCCCCCCCCN1CC[C@]2(C)c3cc(O)ccc3CC1[C@H]2C [(6S,11S)-6,11-Dimethyl-3-nonyl-1,2,3,4,5,6-hexahydro-2,6-methano-benzo[d]azocin-8-ol]	2260
CCCCCCCCN1CC[C@]2(C)c3cc(O)ccc3CC1[C@H]2C [(6S,11S)-6,11-Dimethyl-3-octyl-1,2,3,4,5,6-hexahydro-2,6-methano-benzo[d]azocin-8-ol]	2260

Assay: Inhibition against mu receptor from displacement studies using 0.5 nM [3H]-DAMGO in rhesus monkey cortex membrane

SMILES	Ki [nM]
CCCCCCN1CC[C@@]2(C)c3cc(O)ccc3CC1[C@H]2C [(6R,11S)-3-Hexyl-6,11-dimethyl-1,2,3,4,5,6-hexahydro-2,6-methano-benzo[d]azocin-8-ol]	318
CCCCCCN1CC[C@]2(C)c3cc(O)ccc3CC1[C@@H]2C [(6S,11R)-3-Hexyl-6,11-dimethyl-1,2,3,4,5,6-hexahydro-2,6-methano-benzo[d]azocin-8-ol]	39
CCCCCCCCCN1CC[C@]2(C)c3cc(O)ccc3CC1[C@@H]2C [(6S,11R)-6,11-Dimethyl-3-nonyl-1,2,3,4,5,6-hexahydro-2,6-methano-benzo[d]azocin-8-ol]	183
CCCCCCCCN1CC[C@]2(C)c3cc(O)ccc3CC1[C@@H]2C [(6S,11R)-6,11-Dimethyl-3-octyl-1,2,3,4,5,6-hexahydro-2,6-methano-benzo[d]azocin-8-ol]	59
CCCCCN1CC[C@]2(C)c3cc(O)ccc3CC1[C@@H]2C [(6S,11R)-6,11-Dimethyl-3-pentyl-1,2,3,4,5,6-hexahydro-2,6-methano-benzo[d]azocin-8-ol]	15
CCCN1CC[C@]2(C)c3cc(O)ccc3CC1[C@@H]2C [(6S,11R)-6,11-Dimethyl-3-propyl-1,2,3,4,5,6-hexahydro-2,6-methano-benzo[d]azocin-8-ol]	1.5
CCCCCCCCCCN1CC[C@]2(C)c3cc(O)ccc3CC1[C@H]2C [(6S,11S)-3-Decyl-6,11-dimethyl-1,2,3,4,5,6-hexahydro-2,6-methano-benzo[d]azocin-8-ol]	756
CCCCCCCN1CC[C@]2(C)c3cc(O)ccc3CC1[C@H]2C [(6S,11S)-3-Heptyl-6,11-dimethyl-1,2,3,4,5,6-hexahydro-2,6-methano-benzo[d]azocin-8-ol]	259
CCCCCCCCCN1CC[C@]2(C)c3cc(O)ccc3CC1[C@H]2C [(6S,11S)-6,11-Dimethyl-3-nonyl-1,2,3,4,5,6-hexahydro-2,6-methano-benzo[d]azocin-8-ol]	126
CCCCCCCCN1CC[C@]2(C)c3cc(O)ccc3CC1[C@H]2C [(6S,11S)-6,11-Dimethyl-3-octyl-1,2,3,4,5,6-hexahydro-2,6-methano-benzo[d]azocin-8-ol]	160

Assay: Inhibition against sigma receptor using displacement of 3 nM [3H]pentazocine in homogenate of guinea pig brain cerebellum

SMILES	Ki [nM]
CCCCCCN1CC[C@@]2(C)c3cc(O)ccc3CC1[C@H]2C [(6R,11S)-3-Hexyl-6,11-dimethyl-1,2,3,4,5,6-hexahydro-2,6-methano-benzo[d]azocin-8-ol]	2.3
CCCCCCN1CC[C@]2(C)c3cc(O)ccc3CC1[C@@H]2C [(6S,11R)-3-Hexyl-6,11-dimethyl-1,2,3,4,5,6-hexahydro-2,6-methano-benzo[d]azocin-8-ol]	40
C[C@H]1C2Cc3ccc(O)cc3[C@@]1(C)CCN2 [(6S,11R)-6,11-Dimethyl-1,2,3,4,5,6-hexahydro-2,6-methano-benzo[d]azocin-8-ol]	6750
CCCCCCCCCN1CC[C@]2(C)c3cc(O)ccc3CC1[C@@H]2C [(6S,11R)-6,11-Dimethyl-3-nonyl-1,2,3,4,5,6-hexahydro-2,6-methano-benzo[d]azocin-8-ol]	32
CCCCCCCCN1CC[C@]2(C)c3cc(O)ccc3CC1[C@@H]2C [(6S,11R)-6,11-Dimethyl-3-octyl-1,2,3,4,5,6-hexahydro-2,6-methano-benzo[d]azocin-8-ol]	35
CCCN1CC[C@]2(C)c3cc(O)ccc3CC1[C@@H]2C [(6S,11R)-6,11-Dimethyl-3-propyl-1,2,3,4,5,6-hexahydro-2,6-methano-benzo[d]azocin-8-ol]	739
CCCCCCCCCCN1CC[C@]2(C)c3cc(O)ccc3CC1[C@H]2C [(6S,11S)-3-Decyl-6,11-dimethyl-1,2,3,4,5,6-hexahydro-2,6-methano-benzo[d]azocin-8-ol]	69
CCCCCCCN1CC[C@]2(C)c3cc(O)ccc3CC1[C@H]2C [(6S,11S)-3-Heptyl-6,11-dimethyl-1,2,3,4,5,6-hexahydro-2,6-methano-benzo[d]azocin-8-ol]	1.9
CCCCCCCCCN1CC[C@]2(C)c3cc(O)ccc3CC1[C@H]2C [(6S,11S)-6,11-Dimethyl-3-nonyl-1,2,3,4,5,6-hexahydro-2,6-methano-benzo[d]azocin-8-ol]	12
CCCCCCCCN1CC[C@]2(C)c3cc(O)ccc3CC1[C@H]2C [(6S,11S)-6,11-Dimethyl-3-octyl-1,2,3,4,5,6-hexahydro-2,6-methano-benzo[d]azocin-8-ol]	2.8

Reference: BindingDB's records for doi:10.1021/jm00046a026 (Virginia Commonwealth University, 1994)
